ChEMBL document CHEMBL1201862, “PubChem BioAssay data set” (2004)
Each block holds one molecule with its values, some of them ahead of it. Active and inactive are the calls of the source.

Key:
[1] = biological target: Intestinal-type alkaline phosphatase (Mus musculus, UniProt P24822); experiment: PubChem AID 488874; assay type: functional
[2] = biological target: 26S proteasome non-ATPase regulatory subunit 14 (Homo sapiens, UniProt O00487); experiment: inhibition of proteasome subunit RPN11 – biochemical, fluorescence polarization, uHTS hits, confirmation (AID 602368); assay type: functional
[3] = biological target: Intestinal-type alkaline phosphatase (Homo sapiens, UniProt P09923); experiment: activation of human intestinal alkaline phosphatase – biochemical, luminescent, uHTS hits, set 2, dose response (AID 488817); assay type: functional;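 note: potency of activators that raise enzyme activity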
[4] = biological target: 72 kDa type IV collagenase (Homo sapiens, UniProt P08253); experiment: Dose Response validation of uHTS RPN11 inhibitor hits using a MMP-2 Fluorescence assay.; assay type: functional
[5] = DRD fibroblast viability loss – cell-based, non-viral oncogenic, luminescence, dose response (AID 1934); assay type: functional; settings: Homo sapiens
[6] = biological target: Platelet-derived growth factor receptor beta (Homo sapiens, UniProt P09619); assay type: functional;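 note: value comes from a kinome panel, with PDGFRB tested as one panel member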
[7] = biological target: Serine/threonine-protein kinase Chk1 (Homo sapiens, UniProt O14757); assay type: functional;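 note: measured as one member of a kinome-wide kinase profiling panel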
[8] = biological target: Tyrosine-protein kinase ABL1 (Homo sapiens, UniProt P00519); assay type: functional
[9] = Trypanosoma cruzi growth suppression in host cells – NIH3T3 host cells, beta-gal luminescence, confirmation (AID 2044); assay type: functional, cell-based;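 note: intracellular parasites grown in NIH/3T3 mouse fibroblasts as host cells; luminescent beta-galactosidase reporter signal from transgenic T. cruzi replicating inside host cells; inhibitors lower the luminescence signal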
[10] = HIV-1 AD8 envelope cell-cell fusion blockers – cherry-pick, dose response (AID 652062); assay type: functional, cell-based;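 note: luciferase signal from cell-cell fusion driven by HIV-1 clade B AD8 Env; potency is for inhibitors of fusion seen as a drop in luminescence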
[11] = luciferase reporter signal suppression in cells – H4 neuroglioma cells, luminescence, dose response (AID 1990); assay type: functional, cell-based
[12] = fluconazole-exposed Candida albicans growth modulators – fluorescence, retest, confirmation (AID 2467); assay type: functional, cell-based
[13] = luciferase reporter signal reduction – luminescence, H4-C neuroglioblastoma cells, dose response (AID 2458); assay type: functional, cell-based;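 note: H4 neuroglioblastoma cells stably carrying a luciferase reporter gene fusion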
[14] = blockers of HIV-1 ZM109 envelope-driven cell-cell fusion – HeLa effector, CEM target cells, luciferase, cherry-pick, dose response (AID 652058); assay type: functional, cell-based;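 note: luciferase signal from HIV-1 Env mediated cell-cell fusion of effector and target cells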
[15] = system: HEK293; experiment: membrane integrity loss in HEK cells – cell-based, fluorescence, cytotoxicity control for IDE activator project, dose response (AID 588440); assay type: functional; settings: Homo sapiens;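 note: cytotoxicity by LDH release measuring loss of membrane integrity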
[16] = biological target: Maternal embryonic leucine zipper kinase (Homo sapiens, UniProt Q14680); assay type: functional
[17] = biological target: Activin receptor type-1 (Homo sapiens, UniProt Q04771); experiment: Navigating the Kinome. Panel member name: ACVR1; assay type: functional
[18] = biological target: Cyclin-dependent kinase 2 (Homo sapiens, UniProt P24941); assay type: functional;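 note: CDK2 measured as one member of a broad kinome profiling panel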
[19] = biological target: Serine/threonine-protein kinase N2 (Homo sapiens, UniProt Q16513); assay type: functional
[20] = biological target: T1, Lysine-specific demethylase 4C (Homo sapiens, UniProt Q9H3R0); experiment: inhibition of JMJD2C H3K9me3 demethylation – biochemical, DELFIA europium, cherry-picked samples, dose response (AID 488835); assay type: functional
T1 sequence (Q9H3R0 whole entry): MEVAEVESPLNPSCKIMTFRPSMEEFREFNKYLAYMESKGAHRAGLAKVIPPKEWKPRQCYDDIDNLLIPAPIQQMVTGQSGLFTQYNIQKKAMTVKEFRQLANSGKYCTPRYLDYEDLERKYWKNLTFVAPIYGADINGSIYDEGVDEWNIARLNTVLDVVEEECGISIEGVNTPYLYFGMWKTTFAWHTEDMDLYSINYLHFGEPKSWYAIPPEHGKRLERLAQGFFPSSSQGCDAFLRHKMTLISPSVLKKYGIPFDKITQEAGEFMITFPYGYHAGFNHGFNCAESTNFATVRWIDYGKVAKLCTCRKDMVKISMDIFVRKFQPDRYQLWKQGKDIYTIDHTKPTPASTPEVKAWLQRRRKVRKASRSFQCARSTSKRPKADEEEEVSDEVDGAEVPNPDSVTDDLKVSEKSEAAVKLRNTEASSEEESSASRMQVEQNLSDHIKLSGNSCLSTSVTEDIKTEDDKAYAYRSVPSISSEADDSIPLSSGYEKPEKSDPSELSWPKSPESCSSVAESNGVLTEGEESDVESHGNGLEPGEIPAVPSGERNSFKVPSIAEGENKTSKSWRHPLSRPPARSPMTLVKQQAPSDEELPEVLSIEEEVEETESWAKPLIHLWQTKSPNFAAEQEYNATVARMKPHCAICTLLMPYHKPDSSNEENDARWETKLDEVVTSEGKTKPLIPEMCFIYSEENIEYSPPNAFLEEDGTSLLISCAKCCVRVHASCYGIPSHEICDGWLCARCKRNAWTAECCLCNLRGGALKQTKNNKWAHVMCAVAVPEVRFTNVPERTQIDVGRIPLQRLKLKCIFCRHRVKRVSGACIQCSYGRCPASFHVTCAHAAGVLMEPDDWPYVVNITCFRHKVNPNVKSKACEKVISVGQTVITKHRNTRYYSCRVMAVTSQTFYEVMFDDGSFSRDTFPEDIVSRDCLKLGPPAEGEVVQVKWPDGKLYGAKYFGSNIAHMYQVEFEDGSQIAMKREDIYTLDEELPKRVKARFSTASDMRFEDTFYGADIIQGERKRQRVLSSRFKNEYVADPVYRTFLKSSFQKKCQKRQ

[21] = biological target: Tyrosyl-DNA phosphodiesterase 2 (Homo sapiens, UniProt O95551); experiment: potency against TDP2 phosphodiesterase activity – biochemical, epi absorbance, IC50, dose response (AID 743297)
Sequence of Tyrosyl-DNA phosphodiesterase 2 (O95551 whole entry): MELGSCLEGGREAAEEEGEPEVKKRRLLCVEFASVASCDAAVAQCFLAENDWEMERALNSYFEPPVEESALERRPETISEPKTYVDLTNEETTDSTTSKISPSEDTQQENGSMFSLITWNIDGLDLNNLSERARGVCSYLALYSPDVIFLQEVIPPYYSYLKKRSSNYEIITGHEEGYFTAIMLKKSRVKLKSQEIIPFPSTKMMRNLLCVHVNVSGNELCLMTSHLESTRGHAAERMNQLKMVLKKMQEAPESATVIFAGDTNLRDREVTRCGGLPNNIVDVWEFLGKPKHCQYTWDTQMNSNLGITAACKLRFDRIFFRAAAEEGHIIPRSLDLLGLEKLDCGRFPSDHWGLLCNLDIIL

Sequence of 26S proteasome non-ATPase regulatory subunit 14 (O00487 whole entry): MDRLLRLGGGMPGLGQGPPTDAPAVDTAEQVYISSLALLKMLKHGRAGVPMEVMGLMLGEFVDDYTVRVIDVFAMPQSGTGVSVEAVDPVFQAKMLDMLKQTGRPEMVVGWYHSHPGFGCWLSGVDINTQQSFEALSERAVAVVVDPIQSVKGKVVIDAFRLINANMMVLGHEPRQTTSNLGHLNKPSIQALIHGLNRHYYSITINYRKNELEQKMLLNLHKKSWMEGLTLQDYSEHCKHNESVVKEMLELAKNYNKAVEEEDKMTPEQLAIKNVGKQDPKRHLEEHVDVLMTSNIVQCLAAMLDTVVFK
Sequence of Serine/threonine-protein kinase Chk1 (O14757 whole entry): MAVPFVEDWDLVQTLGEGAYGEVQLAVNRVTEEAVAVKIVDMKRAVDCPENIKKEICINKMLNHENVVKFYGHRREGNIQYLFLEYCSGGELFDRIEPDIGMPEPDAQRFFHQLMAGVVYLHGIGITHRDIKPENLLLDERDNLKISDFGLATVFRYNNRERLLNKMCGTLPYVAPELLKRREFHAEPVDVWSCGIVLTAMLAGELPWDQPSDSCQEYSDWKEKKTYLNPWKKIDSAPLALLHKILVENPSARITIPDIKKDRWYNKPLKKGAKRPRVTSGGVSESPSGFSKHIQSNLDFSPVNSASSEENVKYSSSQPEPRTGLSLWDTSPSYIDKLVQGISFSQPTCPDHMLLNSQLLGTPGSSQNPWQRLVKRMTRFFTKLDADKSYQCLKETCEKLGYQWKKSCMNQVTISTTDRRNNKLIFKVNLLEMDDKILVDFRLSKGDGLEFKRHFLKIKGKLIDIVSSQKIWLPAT
Sequence of Serine/threonine-protein kinase N2 (Q16513 whole entry): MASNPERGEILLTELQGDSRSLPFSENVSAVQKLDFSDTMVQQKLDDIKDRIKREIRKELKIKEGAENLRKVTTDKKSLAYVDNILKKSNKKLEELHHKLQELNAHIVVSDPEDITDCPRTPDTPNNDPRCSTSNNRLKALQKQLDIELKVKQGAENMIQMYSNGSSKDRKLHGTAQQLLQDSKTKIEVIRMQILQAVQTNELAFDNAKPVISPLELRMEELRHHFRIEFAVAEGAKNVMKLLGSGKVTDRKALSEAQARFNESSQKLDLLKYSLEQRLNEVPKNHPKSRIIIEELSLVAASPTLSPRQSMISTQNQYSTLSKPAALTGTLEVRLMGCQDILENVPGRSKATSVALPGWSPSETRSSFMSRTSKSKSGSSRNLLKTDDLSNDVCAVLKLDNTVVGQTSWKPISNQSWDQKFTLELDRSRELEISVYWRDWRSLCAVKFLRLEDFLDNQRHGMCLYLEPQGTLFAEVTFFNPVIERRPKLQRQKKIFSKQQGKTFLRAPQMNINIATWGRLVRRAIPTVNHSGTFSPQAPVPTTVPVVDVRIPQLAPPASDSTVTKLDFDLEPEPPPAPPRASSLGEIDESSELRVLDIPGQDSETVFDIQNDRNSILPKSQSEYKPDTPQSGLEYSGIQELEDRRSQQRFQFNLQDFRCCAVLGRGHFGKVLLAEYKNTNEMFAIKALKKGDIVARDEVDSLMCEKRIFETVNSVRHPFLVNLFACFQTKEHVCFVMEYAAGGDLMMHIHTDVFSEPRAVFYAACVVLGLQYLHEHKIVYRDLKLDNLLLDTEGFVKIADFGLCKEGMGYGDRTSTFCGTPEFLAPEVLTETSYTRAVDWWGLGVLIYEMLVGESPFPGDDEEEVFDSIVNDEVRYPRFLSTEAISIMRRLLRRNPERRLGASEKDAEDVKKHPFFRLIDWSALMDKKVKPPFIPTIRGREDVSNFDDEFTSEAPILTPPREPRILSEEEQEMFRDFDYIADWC
Sequence of Tyrosine-protein kinase ABL1 (P00519 whole entry): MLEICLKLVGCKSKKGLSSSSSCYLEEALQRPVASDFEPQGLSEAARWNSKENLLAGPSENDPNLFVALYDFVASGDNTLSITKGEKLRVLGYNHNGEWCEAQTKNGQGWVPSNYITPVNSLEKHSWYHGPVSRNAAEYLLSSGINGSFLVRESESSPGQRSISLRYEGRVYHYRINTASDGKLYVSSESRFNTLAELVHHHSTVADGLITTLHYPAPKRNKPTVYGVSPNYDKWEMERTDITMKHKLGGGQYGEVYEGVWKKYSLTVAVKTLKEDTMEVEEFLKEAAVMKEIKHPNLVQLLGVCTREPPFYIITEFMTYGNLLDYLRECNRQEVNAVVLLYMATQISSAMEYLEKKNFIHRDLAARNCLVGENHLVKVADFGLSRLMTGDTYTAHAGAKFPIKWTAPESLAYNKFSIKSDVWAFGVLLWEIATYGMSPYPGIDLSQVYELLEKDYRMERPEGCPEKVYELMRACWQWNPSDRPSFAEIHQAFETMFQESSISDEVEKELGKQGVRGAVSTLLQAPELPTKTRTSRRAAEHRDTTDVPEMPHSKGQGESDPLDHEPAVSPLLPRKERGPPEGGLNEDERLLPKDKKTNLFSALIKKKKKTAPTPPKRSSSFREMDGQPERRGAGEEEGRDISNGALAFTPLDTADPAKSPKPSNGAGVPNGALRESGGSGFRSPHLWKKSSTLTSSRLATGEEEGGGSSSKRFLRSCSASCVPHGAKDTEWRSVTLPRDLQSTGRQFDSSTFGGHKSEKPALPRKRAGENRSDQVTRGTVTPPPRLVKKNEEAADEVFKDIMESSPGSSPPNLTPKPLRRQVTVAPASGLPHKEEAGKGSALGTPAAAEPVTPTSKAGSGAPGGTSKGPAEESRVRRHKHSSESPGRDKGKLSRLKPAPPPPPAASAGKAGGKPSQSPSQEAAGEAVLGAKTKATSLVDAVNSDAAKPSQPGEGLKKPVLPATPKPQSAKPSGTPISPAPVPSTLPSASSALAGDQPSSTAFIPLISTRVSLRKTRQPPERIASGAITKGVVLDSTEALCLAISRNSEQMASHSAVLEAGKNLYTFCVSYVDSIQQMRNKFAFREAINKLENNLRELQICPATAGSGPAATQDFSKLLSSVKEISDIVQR
Sequence of Maternal embryonic leucine zipper kinase (Q14680 whole entry): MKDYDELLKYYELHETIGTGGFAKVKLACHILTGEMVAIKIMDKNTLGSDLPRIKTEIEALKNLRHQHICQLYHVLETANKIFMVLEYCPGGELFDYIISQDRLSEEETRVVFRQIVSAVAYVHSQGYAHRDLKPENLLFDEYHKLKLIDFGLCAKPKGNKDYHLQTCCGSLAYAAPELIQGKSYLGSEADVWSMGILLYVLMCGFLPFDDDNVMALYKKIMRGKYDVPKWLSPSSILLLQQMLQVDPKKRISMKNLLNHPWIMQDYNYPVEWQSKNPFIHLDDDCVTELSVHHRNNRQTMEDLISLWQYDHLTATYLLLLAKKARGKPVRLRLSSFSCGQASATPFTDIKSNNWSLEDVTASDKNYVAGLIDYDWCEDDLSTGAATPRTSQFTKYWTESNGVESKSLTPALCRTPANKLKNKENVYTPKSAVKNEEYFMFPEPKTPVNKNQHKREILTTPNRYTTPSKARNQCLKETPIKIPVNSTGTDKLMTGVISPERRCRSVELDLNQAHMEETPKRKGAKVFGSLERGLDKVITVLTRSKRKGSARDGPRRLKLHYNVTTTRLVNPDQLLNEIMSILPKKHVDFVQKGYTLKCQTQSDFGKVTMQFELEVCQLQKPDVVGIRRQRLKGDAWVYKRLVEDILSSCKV
Sequence of Activin receptor type-1 (Q04771 whole entry): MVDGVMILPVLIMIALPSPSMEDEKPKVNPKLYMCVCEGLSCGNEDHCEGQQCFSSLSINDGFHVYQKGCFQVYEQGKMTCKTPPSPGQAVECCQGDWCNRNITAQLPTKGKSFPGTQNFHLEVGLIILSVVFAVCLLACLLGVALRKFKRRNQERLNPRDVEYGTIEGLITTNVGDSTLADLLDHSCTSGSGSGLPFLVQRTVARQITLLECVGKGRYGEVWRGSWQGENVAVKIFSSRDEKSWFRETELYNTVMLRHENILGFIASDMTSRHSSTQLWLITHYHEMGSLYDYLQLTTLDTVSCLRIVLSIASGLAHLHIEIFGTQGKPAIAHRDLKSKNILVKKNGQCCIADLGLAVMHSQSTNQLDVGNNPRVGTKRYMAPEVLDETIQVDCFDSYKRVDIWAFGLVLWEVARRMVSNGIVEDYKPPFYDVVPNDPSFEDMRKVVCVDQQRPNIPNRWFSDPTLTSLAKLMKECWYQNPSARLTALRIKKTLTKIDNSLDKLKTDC
Sequence of Intestinal-type alkaline phosphatase (Mus musculus, UniProt P24822) (P24822 whole entry): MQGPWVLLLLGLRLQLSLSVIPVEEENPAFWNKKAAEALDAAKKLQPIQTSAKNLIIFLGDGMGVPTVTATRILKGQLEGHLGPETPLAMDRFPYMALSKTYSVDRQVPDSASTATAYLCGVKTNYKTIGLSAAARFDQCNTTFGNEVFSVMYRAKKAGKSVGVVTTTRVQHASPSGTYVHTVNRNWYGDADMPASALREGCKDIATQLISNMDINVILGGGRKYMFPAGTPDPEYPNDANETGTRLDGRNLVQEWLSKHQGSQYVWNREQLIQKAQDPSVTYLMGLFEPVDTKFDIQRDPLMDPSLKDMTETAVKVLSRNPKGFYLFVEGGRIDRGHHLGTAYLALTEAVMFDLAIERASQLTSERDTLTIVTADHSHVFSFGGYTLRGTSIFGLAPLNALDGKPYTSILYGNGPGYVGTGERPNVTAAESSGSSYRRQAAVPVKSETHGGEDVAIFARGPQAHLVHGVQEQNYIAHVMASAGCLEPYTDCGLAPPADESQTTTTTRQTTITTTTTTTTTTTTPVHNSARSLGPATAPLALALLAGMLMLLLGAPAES

Compound: O=C(N/N=C/c1c(O)ccc2ccccc12)c1[nH]ncc1Br
IC50 [1]: 36.5 µM (active) | IC50 [2]: 24 µM (active) | EC50 [3]: 11.7 µM (active) | IC50 [4]: > 100 µM (inactive) | EC50 [5]: 3.04 µM (active)

Ki [6]: 0.00794 µM (active) | Ki [7]: > 3.16 µM (inactive) | Ki [8]: 0.2 µM (active)
Compound: Nc1c(-c2ccc(NC(=O)Nc3cccc(C(F)(F)F)c3)cc2)cnc2c(-c3ccc4c(c3)OCO4)cnn12

Compound: CCN1C(=Cc2sc3ccccc3[n+]2C)C=Cc2cccc(C)c21
EC50 [9]: < 0.1 µM (active) | AC50 [10]: 1.05 µM (active) | EC50 [11]: 0.142 µM (active) | EC50 [12]: 0.054 µM (active) | EC50 [13]: 3.14 µM (active) | AC50 [14]: 7.58 µM (active)

Compound: CNC[C@H](Cc1ccccc1)NC[C@@H](Cc1cccc2ccccc12)NCCc1ccc(C)cc1
IC50 [15]: 9.04 µM (active)

Ki [16]: 0.0316 µM (active) | Ki [17]: > 3.98 µM (inactive) | Ki [18]: > 3.16 µM (inactive) | Ki [19]: > 5.01 µM (inactive)
Compound: O=C(Nc1cc(-c2c[nH]c3ncccc23)cc(Cl)n1)c1ccccc1

Compound: O=C(Cc1ccccc1Cl)NC1(O)C(=O)c2ccccc2C1=O
AC50 [20]: 7.1 µM (active) | IC50 [21]: 11.5 µM (inactive)
